One data set concerns the target T1, CYP 1A2 (Homo sapiens, UniProt P05177).
T1 construct: from tissue; host or cells: human liver microsomes
T1 sequence (P05177 1-516): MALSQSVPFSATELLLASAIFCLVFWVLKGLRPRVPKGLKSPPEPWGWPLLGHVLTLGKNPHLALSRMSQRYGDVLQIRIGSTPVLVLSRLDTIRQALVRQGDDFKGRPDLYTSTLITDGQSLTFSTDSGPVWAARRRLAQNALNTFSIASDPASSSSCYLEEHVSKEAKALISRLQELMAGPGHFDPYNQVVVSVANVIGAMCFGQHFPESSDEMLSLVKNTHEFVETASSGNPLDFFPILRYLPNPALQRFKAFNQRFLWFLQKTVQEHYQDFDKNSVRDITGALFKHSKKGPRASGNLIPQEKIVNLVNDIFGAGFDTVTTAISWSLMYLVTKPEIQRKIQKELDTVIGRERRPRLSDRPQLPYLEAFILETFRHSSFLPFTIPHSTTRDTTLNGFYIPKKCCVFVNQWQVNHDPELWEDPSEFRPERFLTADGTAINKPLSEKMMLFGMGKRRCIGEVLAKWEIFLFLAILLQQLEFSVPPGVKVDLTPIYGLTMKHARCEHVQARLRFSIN
In words: CYP inhibition in human liver microsomes, 1A2. Type of data set: in vitro ADME. To be noted: pH 7.4, @ 10 μM concn. The procedure: (§1) CYP Inhibition Studies: CYP inhibition studies were performed with test compounds, at two concentrations ([…] and 10 μM), using human liver microsomes (Yao, M., Zhu, M., Sinz, M. W., Zhang, H., Humphreys, W. F., Rodrigues, A. D and Dai, R., Journal of Pharmaceutical and Biomedical Analysis, 2007, 44, 211-223; Walsky, R. L and Obach, R. S., Drug Metab. Dispos., 2004, 32, 647-660). Human liver microsomes were mixed with 100 mM phosphate buffer (pH 7.4) and probe substrate and warmed to […] in microcentrifuge tubes. Aliquots of this mixture (499 μL) were transferred to each pre-labeled microcentrifuge tubes, followed by addition of the 1 μL of inhibitors (test compound/CYP-specific positive control inhibitor) or control solvent (DMSO). Aliquots of this mixture (90 μL) were transferred to each pre-labeled microcentrifuge tubes in duplicate. Final solvent concentrations were 0.2% (v/v) or less. Incubations were commenced with the addition of 10 μL NADPH stock (assay concentration, 1 mM) to a final incubation volume of 100 μL and incubated in shaking water bath (at 37° C. and 100 rpm), for the period defined in Tables 1. Incubations were terminated by addition of 400 μL of termination solvent (CH3CN) containing internal standard. The terminated samples were vortex-mixed, centrifuged at 10000 rpm for 5 min and supernatant transferred into HPLC vials for LC-MS/MS analysis to monitor metabolites produced by marker CYP reactions. […] Animals
(Microsomes from liver hold many membrane-bound enzymes, among them those of drug oxidation.)

A further data set concerns the target T2, CYP 2C9 (Homo sapiens, UniProt P11712).
T2 construct: from tissue; host or cells: human liver microsomes
In words: CYP inhibition in human liver microsomes, 2C9. The data set is classed as in vitro ADME. The settings on record: pH 7.4, @ 10 μM concn. On the procedure:
as §1

Another data set has as its target T3, CYP 2C19 (Homo sapiens, UniProt P33261).
T3 construct: from tissue; host or cells: human liver microsomes
In words: CYP inhibition in human liver microsomes, 2C19. The data set is classed as in vitro ADME. To be noted: pH 7.4, @ 10 μM concn. The procedure: as §1

The target in another data set is T4, CYP 3A4 (Homo sapiens, UniProt P08684).
T4 construct: from tissue; host or cells: human liver microsomes
In words: CYP inhibition in human liver microsomes, 3A4. The data set is classed as in vitro ADME. To be noted: pH 7.4, @ 10 μM concn. The procedure: as §1

For another data set, the target named is T5, CYP 2D6 (Homo sapiens, UniProt P10635).
T5 construct: from tissue; host or cells: human liver microsomes
Put plainly: CYP inhibition in human liver microsomes, 2D6. The data set is classed as in vitro ADME. To be noted: pH 7.4, @ 10 μM concn. On the procedure: as §1

A further data set deals with T6, CYP 2C8 (Homo sapiens, UniProt P10632).
T6 construct: from tissue; host or cells: human liver microsomes
T6 sequence (P10632 1-490): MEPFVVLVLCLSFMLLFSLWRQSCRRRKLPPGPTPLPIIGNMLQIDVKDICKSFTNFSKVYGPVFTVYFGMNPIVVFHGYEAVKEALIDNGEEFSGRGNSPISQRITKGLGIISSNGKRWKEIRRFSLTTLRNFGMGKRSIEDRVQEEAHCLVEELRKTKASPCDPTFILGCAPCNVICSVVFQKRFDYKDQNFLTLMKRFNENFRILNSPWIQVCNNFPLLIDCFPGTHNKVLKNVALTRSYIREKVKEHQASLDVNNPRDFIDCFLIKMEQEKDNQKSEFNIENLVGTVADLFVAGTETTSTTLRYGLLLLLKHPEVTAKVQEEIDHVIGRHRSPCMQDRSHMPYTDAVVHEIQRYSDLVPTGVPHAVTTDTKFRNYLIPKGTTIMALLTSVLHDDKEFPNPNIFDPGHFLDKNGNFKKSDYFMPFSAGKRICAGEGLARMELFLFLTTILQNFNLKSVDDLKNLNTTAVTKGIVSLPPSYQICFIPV
Put plainly: CYP inhibition in human liver microsomes, 2C8. The settings on record: pH 7.4, @ 10 μM concn. Type of data set: in vitro ADME. The procedure:
as §1

The target of data set [1] is T7, recombinant purified human BTK (Homo sapiens, UniProt Q06187).
T7 construct: purchased SignalChem, USA
In words: In vitro BTK kinase assay on ADP Glo platform. The data set is classed as biochemical. The settings on record: 2 hr room temperature, read-out: In-vitro BTK inhibitory activity: IC50. The procedure: Testing of Compounds of the Invention Biological Studies: In vitro BTK Inhibitory Activity Assay:
In vitro BTK inhibitory activity of test compounds were screened using BTK kinase assay on ADP Glo platform (Li, H., Totoritis, R. D., Lor, L. A., Schwartz, B., Caprioli, P., Jurewicz, A. J and Zhang, G., Assay Drug Dev. Technol., 2009, 7(6), 598-605). Briefly, fixed amount of recombinant purified human BTK (3 ng/reaction from SignalChem, USA) were incubated with increasing concentration of test compounds, in 1× kinase reaction buffer (40 mM Tris-Cl, pH7.5, 20 mM MgCl2, 2 mM MnCl2, 0.1 mg/ml BSA and 50 μM DTT). Enzymatic reaction was initiated by adding a substrate cocktail containing 50 µM of ATP (final concentration) and […] of polyGln4Tyr1 (Signal Chem) in total 25 μl of reaction, in round bottom white 96 well plate. The reaction mixture was incubated at room temperature for 2 hr. After 2 hr of incubation, 10 μl of the reaction mix was mixed with […] of ADP Glo reagent, in another round bottom white 96 well plate and incubated at room temperature for 40 min. This was followed by addition of kinase detection reagent (20 μl per reaction) and incubation at room temperature for 30 min. Finally, plate was read for luminescence at an integration time of 500 millisecond per well. Data were plotted taking Enzyme with no inhibitor set as the 100% kinase activity and for dose response curve, % Kinase activity was plotted against conc on Log scale and IC50 was determined by non linear curve fitting method using GraphPad Prism software 6. The in vitro BTK inhibitory activity (IC50) for representative compounds are listed in […]
On the technique in general: ADP-Glo first removes unused ATP, then detects ADP through luciferase.

Bounds are passed on as bounds.

T7 sequence (Q06187 whole entry): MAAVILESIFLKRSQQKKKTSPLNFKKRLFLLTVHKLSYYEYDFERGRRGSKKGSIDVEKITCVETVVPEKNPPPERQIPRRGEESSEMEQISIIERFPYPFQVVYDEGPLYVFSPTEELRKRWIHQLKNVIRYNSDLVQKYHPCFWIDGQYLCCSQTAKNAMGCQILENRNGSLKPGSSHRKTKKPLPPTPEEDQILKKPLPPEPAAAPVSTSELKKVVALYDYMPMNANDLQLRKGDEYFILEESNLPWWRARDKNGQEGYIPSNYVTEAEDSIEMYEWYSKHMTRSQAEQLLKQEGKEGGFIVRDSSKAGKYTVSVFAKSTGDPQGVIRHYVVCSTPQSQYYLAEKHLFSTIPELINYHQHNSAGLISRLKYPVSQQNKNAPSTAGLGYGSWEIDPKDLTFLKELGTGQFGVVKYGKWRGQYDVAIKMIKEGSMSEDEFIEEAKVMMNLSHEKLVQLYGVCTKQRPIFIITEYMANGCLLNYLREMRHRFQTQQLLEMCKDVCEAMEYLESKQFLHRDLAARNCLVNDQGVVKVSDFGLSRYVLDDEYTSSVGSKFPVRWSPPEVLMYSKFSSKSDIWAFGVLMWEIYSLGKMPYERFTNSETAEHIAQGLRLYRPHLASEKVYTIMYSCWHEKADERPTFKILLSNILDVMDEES
T5 sequence (P10635 whole entry): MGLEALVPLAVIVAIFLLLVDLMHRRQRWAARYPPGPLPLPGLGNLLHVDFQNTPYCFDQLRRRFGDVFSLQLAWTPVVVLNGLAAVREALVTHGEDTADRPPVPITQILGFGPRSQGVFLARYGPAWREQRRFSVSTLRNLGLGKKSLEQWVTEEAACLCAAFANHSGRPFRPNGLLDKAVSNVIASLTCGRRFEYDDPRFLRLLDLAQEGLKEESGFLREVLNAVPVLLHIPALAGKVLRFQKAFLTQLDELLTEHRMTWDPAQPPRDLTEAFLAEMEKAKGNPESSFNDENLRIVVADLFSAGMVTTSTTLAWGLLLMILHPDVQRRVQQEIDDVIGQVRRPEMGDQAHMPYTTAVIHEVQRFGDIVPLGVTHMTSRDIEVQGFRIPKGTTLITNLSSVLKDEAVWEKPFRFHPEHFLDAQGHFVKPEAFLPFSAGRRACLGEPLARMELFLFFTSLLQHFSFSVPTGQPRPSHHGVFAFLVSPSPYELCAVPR
T3 sequence (P33261 whole entry): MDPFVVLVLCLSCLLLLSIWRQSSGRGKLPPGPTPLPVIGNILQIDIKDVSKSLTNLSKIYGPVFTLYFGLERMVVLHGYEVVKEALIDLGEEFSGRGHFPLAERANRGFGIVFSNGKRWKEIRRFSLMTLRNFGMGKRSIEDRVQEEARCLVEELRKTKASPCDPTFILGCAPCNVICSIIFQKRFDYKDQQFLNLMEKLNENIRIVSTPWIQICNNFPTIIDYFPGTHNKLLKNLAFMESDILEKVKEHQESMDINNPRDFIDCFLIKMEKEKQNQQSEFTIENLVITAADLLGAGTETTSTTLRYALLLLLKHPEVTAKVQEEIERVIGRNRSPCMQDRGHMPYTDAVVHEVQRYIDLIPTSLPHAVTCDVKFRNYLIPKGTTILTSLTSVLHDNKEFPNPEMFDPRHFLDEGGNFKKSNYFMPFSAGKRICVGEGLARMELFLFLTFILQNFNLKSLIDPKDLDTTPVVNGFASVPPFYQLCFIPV
T4 sequence (P08684 whole entry): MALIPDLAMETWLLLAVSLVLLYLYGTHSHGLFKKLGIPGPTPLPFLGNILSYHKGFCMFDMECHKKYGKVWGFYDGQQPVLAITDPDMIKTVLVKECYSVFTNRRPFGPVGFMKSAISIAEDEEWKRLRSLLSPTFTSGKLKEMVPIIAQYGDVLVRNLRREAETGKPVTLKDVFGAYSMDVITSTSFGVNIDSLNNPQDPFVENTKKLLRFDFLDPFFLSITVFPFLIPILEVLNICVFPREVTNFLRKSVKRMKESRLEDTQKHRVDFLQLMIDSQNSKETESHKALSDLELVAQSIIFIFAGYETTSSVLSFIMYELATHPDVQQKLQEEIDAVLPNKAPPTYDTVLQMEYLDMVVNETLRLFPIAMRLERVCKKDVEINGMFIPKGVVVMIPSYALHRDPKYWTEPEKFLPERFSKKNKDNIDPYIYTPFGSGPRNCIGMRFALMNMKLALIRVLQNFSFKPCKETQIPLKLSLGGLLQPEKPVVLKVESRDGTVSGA
T2 sequence (P11712 whole entry): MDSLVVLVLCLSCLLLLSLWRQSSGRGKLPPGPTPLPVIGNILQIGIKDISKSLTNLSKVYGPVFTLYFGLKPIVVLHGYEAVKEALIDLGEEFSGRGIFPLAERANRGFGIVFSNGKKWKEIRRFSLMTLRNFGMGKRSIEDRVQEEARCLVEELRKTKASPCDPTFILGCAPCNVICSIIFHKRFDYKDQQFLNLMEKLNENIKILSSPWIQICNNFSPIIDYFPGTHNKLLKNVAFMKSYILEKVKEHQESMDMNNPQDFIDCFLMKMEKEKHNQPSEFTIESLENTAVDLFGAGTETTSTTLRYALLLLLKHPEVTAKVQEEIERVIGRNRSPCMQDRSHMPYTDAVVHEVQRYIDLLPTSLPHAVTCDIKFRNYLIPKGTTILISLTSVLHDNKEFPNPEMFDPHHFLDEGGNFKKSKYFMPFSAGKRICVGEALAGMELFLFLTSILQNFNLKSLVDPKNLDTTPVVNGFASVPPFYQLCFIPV

On to `C=CC(=O)N1CC2CC(n3cc(-c4ccc(Oc5ccccc5)cc4)c4c(N)ncnc43)CC2C1` (stereo not shown) [Compound 31, 1-(5-(4-amino-5-(4-phenoxyphenyl)-7H-pyrrolo[2,3-d]pyrimidin-7-yl)hexahydrocyclopenta[c]pyrrol-2(1H)-yl)prop-2-en-1-one], for which the inhibition at 10 μM at CYP 1A2, against CYP 2C9, on CYP 2C19, against CYP 3A4, against CYP 2D6 and at CYP 2C8 was less than 50% each time. In data set [1], the IC50 (in general, the concentration that inhibits the measured activity by half) was found to be 0.6 nM.
Take `CN(C)C/C=C/C(=O)N1CC2CC(n3nc(-c4ccc(Oc5ccccc5)cc4)c4c(N)ncnc43)CC2C1` (stereo not shown) [Compound 24, (E)-1-(5-(4-amino-3-(4-phenoxyphenyl)-1H-pyrazolo[3,4-d]pyrimidin-1-yl)hexahydrocyclopenta[c]pyrrol-2(1H)-yl)-4-(dimethylamino)but-2-en-1-one]: the inhibition at 10 μM on CYP 1A2, against CYP 2C9, against CYP 2C19, against CYP 3A4, at CYP 2D6 and on CYP 2C8 was less than 50% in each case. In addition, the IC50 in data set [1] turned out to be 2.5 nM.
For `C=CC(=O)N1CC2CC(n3nc(-c4ccc5nc(NC(C)=O)sc5c4)c4c(N)ncnc43)CC2C1` (stereo not shown) [Compound 9, N-(6-(1-(2-acryloyloctahydrocyclopenta[c]pyrrol-5-yl)-4-amino-1H-pyrazolo [3,4-d]pyrimidin-3-yl)benzo[d]thiazol-2-yl)acetamide], the inhibition (in general, the change of the read-out against control, counted positive when it falls) at 10 μM on CYP 1A2 is less than 50%; against CYP 2C9 it was more than 50%; against CYP 2C19, less than 50%; against CYP 3A4 it was more than 50%; at CYP 2D6, less than 50%; against CYP 2C8, more than 50%. Also, in data set [1], the IC50 worked out at 28 nM.
`C=CS(=O)(=O)N1CC2CC(n3c(=O)n(-c4ccc(Oc5ccccc5)cc4)c4c(N)ncnc43)CC2C1` (stereo not shown) [Compound 33, 6-amino-7-(4-phenoxyphenyl)-9-(2-(vinylsulfonyl)octahydrocyclopenta[c]pyrrol-5-yl)-7H-purin-8(9H)-one]: the inhibition at 10 μM against CYP 1A2, at CYP 2C9, on CYP 2C19, against CYP 3A4, on CYP 2D6 and against CYP 2C8 was less than 50% in each case. In addition, the IC50 in data set [1] was determined as 1.5 nM.
On to `C=CS(=O)(=O)N1CC2CC(n3nc(-c4ccc(Oc5ccccc5)cc4)c4c(N)ncnc43)CC2C1` (stereo not shown) [Compound 18, 3-(4-phenoxyphenyl)-1-(2-(vinylsulfonyl)octahydrocyclopenta[c]pyrrol-5-yl)-1H-pyrazolo[3,4-d]pyrimidin-4-amine], for which the inhibition at 10 μM on CYP 1A2 is less than 50%; on CYP 2C9, more than 50%; against CYP 2C19, less than 50%; on CYP 3A4, more than 50%; against CYP 2D6, less than 50%; at CYP 2C8, more than 50%. Further, the IC50 in data set [1] was determined as 218 nM.
Consider `C=CC(=O)N1CC2CC(n3nc(-c4ccc(Oc5ccccc5)c(OC)c4)c4c(N)ncnc43)CC2C1` (stereo not shown) [Compound 12, 1-(5-(4-amino-3-(3-methoxy-4-phenoxyphenyl)-1H-pyrazolo[3,4-d]pyrimidin-1-yl)hexahydrocyclopenta[c]pyrrol-2(1H)-yl)prop-2-en-1-one], for which the inhibition at 10 μM is less than 50% against CYP 1A2; more than 50% on CYP 2C9; less than 50% on CYP 2C19; more than 50% at CYP 3A4; less than 50% against CYP 2D6; more than 50% on CYP 2C8. In data set [1], the IC50 is 37 nM.
Consider `C=CC(=O)N1CC2CC(n3nc(-c4ccc5c(c4)oc4ccccc45)c4c(N)ncnc43)CC2C1` (stereo not shown) [Compound 8, 1-(5-(4-amino-3-(dibenzo[b,d]furan-3-yl)-1H-pyrazolo[3,4-d]pyrimidin-1-yl)hexahydrocyclopenta[c]pyrrol-2(1H)-yl)prop-2-en-1-one], for which the inhibition at 10 μM against CYP 1A2 is less than 50%; on CYP 2C9, less than 50%; against CYP 2C19, more than 50%; against CYP 3A4, less than 50%; on CYP 2D6, less than 50%; against CYP 2C8 it was less than 50%. The IC50 in data set [1] came to 4 nM.
On to `CN(C)C/C=C/C(=O)N1CC2CC(n3nc(-c4ccc(Oc5ccccn5)cc4)c4c(N)ncnc43)CC2C1` (stereo not shown) [Compound 47, (E)-1-(5-(4-amino-3-(4-(pyridin-2-yloxy)phenyl)-1H-pyrazolo[3,4-d]pyrimidin-1-yl)hexahydrocyclopenta[c]pyrrol-2(1H)-yl)-4-(dimethylamino)but-2-en-1-one], for which the inhibition at 10 μM against CYP 1A2, on CYP 2C9, against CYP 2C19, against CYP 3A4, at CYP 2D6 and against CYP 2C8 was less than 50% in each case. Further, the IC50 in data set [1] is 3 nM.
As to `C=CC(=O)N1CC2CC(n3nc(-c4ccc5ocnc5c4)c4c(N)ncnc43)CC2C1` (stereo not shown) [Compound 22, 1-(5-(4-amino-3-(benzo[d]oxazol-5-yl)-1H-pyrazolo[3,4-d]pyrimidin-1-yl)hexahydrocyclopenta[c]pyrrol-2(1H)-yl)prop-2-en-1-one], the inhibition at 10 μM is less than 50% on CYP 1A2; less than 50% on CYP 2C9; less than 50% against CYP 2C19; less than 50% against CYP 3A4; more than 50% on CYP 2D6; less than 50% against CYP 2C8. The 50% inhibitory concentration (IC50) in data set [1] was determined as 40 nM.
With `CN(C)C/C=C/C(=O)N1CC2CC(n3nc(-c4ccc(Oc5ccccc5)cc4)c4c(N)ncnc43)CC2C1` (stereo not shown) [Compound 48, (E)-1-(5-(4-amino-3-(4-phenoxyphenyl)-1H-pyrazolo[3,4-d]pyrimidin-1-yl)hexahydrocyclopenta[c]pyrrol-2(1H)-yl)-4-(dimethylamino)but-2-en-1-one], the IC50 in data set [1] was 50 nM.

For the origin of these results see patent US9840509B2, “Heterocyclic compounds” (CADILA HEALTHCARE LIMITED, priority 2014, dated 2017).
